Assay results published in US10702603B2 (priority 2012, dated 2020).
Where “and” joins values, the source holds several entries; their conditions need not be identical. Equal values may be shown once. Read-outs that look alike come from different tables or passages of the source.

What was measured:
[1] = cited from earlier work
[2] = test system: Xenotropic Murine Leukemia Virus (XMuLV); assay type: cell-based
[3] = test system: XMuLV; assay: Viral inactivation study with TRITON X-100 using 3 different antibodies
Method: Viral inactivation studies were performed with TRITON X-100® at 1-2× CMC (0.02% w/w) at ambient temperature using 3 different antibodies. TRITON X-100® is a mixture with a range of molecular lengths, so the CMC has a range between 0.01-0.02% w/w at 25° C. in water.

Compound | CMC ([1]; […]) | Log Reduction Factor (120 min) [2] | also measured
CCCCCCCCCCCC[N+](C)(C)CCCCCCCCCCC(=O)[O-] [DDMAU, N-Dodecyl-N,N-(dimethylammonio)undecanoate] | 0.13 mM | – | –
CCCCCCCCCCCCCCCC[N+](C)(C)CCCS(=O)(=O)[O-] [Sulfobetaine-16, N-hexadecyl-N,N-dimethyl-3-ammonio-1-propanesulfonate] | – | 4.2 | Log Reduction Factor (LRF) [2]: 3.16 and 3.15 and 3.14
CCCCCCCCCCCC[N+](C)(C)CCCS(=O)(=O)[O-] [Sulfobetaine-12, N-dodecyl-N,N-dimethyl-3-ammonio-1-propanesulfonate] | – | 4.2 | –
CCCCCCCCCC[N+](C)(C)CCCS(=O)(=O)[O-] [ZWITTERGENT 3-10, n-Decyl-N,N-dimethyl-3-ammonio-1-propanesulfonate] | 25 to 40 mM | – | –
C[C@H](CCC(=O)NCCC[N+](C)(C)CCCS(=O)(=O)[O-])[C@H]1CC[C@H]2[C@@H]3[C@H](O)C[C@@H]4C[C@H](O)CC[C@]4(C)[C@H]3C[C@H](O)[C@]12C [CHAPS, 3-[(3-cholamidopropyl)dimethylammonio]-1-propanesulfonate] | 6 to 10 mM | – | –
CCCCCCCCCCCCCC[N+](C)(C)CCCS(=O)(=O)[O-] [Sulfobetaine-14, N-tetradecyl-N,N-dimethyl-3-ammonio-1-propanesulfonate] | – | 4.7 | –
C[C@H](CCC(=O)NCCC[N+](C)(C)CC(O)CS(=O)(=O)[O-])[C@H]1CC[C@H]2[C@@H]3[C@H](O)C[C@@H]4C[C@H](O)CC[C@]4(C)[C@H]3C[C@H](O)[C@]12C (stereo partly shown) [CHAPSO, 3-([3-Cholamidopropyl]dimethylammonio)-2-hydroxy-1-propanesulfonate] | 8 mM | – | –
CCCCCCCC[N+](C)(C)CCCS(=O)(=O)[O-] [ZWITTERGENT 3-08, n-Octyl-N,N-dimethyl-3-ammonio-1-propanesulfonate] | 330 mM | – | –
CCCCCCCCCCCC[N+](C)(C)[O-] [LDAO, N,N-dimethyldodecylamine N-oxide] | 1 to 2 mM | 4 | Log Reduction Factor (LRF) [2]: 3.14 and 3.07 and 3.08
CCCCCCCCCCCC[N+](C)(C)CC(=O)[O-] [EMPIGEN BB, N,N-Dimethyl-N-dodecylglycine betaine] | 1.6 to 2.1 mM | – | –
TRITON X-100 | – | – | CMC ([1]; at 25° C. in water): 0.01-0.02 % w/w; viral inactivation ([3]; 0.25-0.5× CMC (0.006% w/w), below the CMC): No viral inactivation; XMuLV inactivation ([3]; 1-2× CMC (0.02% w/w), ambient temperature, within 45 min): > 4 log
